Legend:
[1] = tested on: peripheral mononeuropathy nerve injury-induced tactile allodynia; assay: Chung model of neuropathic pain (Chung surgery and von Frey test); format: in vivo, male Sprague Dawley rats; conditions: i.v., rat, von Frey thresholds over 90 min post-drug, % MPE (Drug AUC) − % MPE (Vehicle AUC)
Description: To test agents for activity against peripheral mononeuropathy nerve injury-induced tactile allodynia, male Sprague Dawley rats (wt. 120–160 g) were surgically prepared with unilateral tight ligation of spinal nerves L5 and L6 following the method of Kim and Chung (Kim S. H., Chung J. M. (1992) Pain, September; 50(3):355–63). After 3–4 weeks recovery, paw withdrawal to light touch was assessed as described by Chaplan et al. (Chaplan S. R., et al., (1994) J. Neurosci Methods, July; 53(1):55–63). In brief, rats are placed in a plastic cage with a wire mesh bottom and allowed to acclimate for 15–30 minutes, until cage exploration and grooming stops. […] After acclimation, baseline von Frey thresholds were assessed for the injured hindpaw at −15 min. […] Following drug administration, von Frey thresholds are measured at 15, 30, 60 and 90 min. Data were analyzed by a 2-way repeated measures analysis of variance followed by Dunnett's test (p<0.05). […]
Reversal of neuropathic pain behavior may be expressed as a percentage (0–100%) of the maximum possible effect, over and above the vehicle effects. […]
For example, a compound which immediately reversed neuropathic pain behavior to normal levels, such that animals only responded to the highest von Frey filament (15 g), and maintained normal levels through out the post-drug testing period (90 min) would be calculated as Δ%MPE=100%.

mKCNQ2 channels = target: T1, mKCNQ2 channels (Mus musculus, UniProt Q9Z351); assay: KCNQ whole-cell patch-clamp recordings, HEK 293 stable cell line expressing mKCNQ2 channels; format: cell-based; conditions: mKCNQ2 currents, HEK 293, whole-cell patch clamp; for Imax (%): Hill fit maximum current; for EC50: at −40 mV
T1 construct: expressed in transfected cells
Description: Whole-cell patch-clamp recordings were made from an HEK 293 stable cell line expressing mKCNQ2 channels, maintained in culture for 1–2 days. Patch pipettes had initial resistances of 2.5–4 MΩ. Currents were recorded with an EPC-9 amplifier (HEKA, Lambrecht, Germany) controlled with software (Pulse, HEKA) run on a standard lab PC. Series resistance compensation was used during current recording, and set at 80%. The series resistance (R) and cell capacitance (C) were determined electronically by subtracting the capacitive currents at the onset and offset of a 5 mV voltage step. The cancellation of whole-cell capacitive transients was virtually complete in all cells. Analog current signals were low-pass filtered at 2.9 kHz using a four-pole Bessel filter −3 dB) and stored on a local network server computer at a sampling rate of […]. All recordings were performed at room temperature (20–22° C.). The pipette solution contained (mM): KCl, 150; CaCl2, 2.5; EGTA, 5; MgCl2, 1; HEPES, 10; pH to 7.3 with KOH, and Osmolality of 290–300 mOsm. The extracellular solution contained (mM): NaCl, 140; KCl, 2.5; CaCl2, 2.5; MgCl2, 1; glucose, 10; HEPES, 10; pH to 7.3 with NaOH, and Osmolality of 305–310 mOsm
Concentration response data were generated by measuring the difference in the steady-state amplitude of current in the presence of compound at the end of a 600 ms voltage-clamp step from a holding potential of −80 mV. The concentration-response data were fitted with Hill-type equations: I=Imax/(1+EC50/[A]^nH), where I is the steady-state current at a given concentration of agonist [A]; and Imax, EC50 and nH are parameters estimated from the curve fit. In some cases the concentration-response data were fitted with equations consisting of the sum of two Hill-type components. Current-voltage (I/V) relationships for agonist-evoked currents were obtained by performing 600 ms voltage steps (−110 mV to +40 mV) in the absence and presence of agonist.

Structure (SMILES) | AUC (Δ % MPE) ([1]; 3 mg/kg) | Imax (%) (mKCNQ2 channels) | EC50 (mKCNQ2 channels) | AUC (Δ % MPE) ([1]; 100 mg/kg)
C[C@H](NC(=O)/C=C/c1ccccc1F)c1cccc(-n2cccn2)c1 [Example 4, (S)-3-(2-Fluoro-phenyl)-N-[1-(3-pyrazol-1-yl-phenyl)-ethyl]-acrylamide] | 24 (3 mg/kg, i.v.) Δ % MPE | 1158% | 0.123 µM | –
C[C@H](NC(=O)CCCc1ccccc1)c1cccc(-c2cccnc2)c1 [Example 17, (S)-4-Phenyl-N-[1-(3-pyridin-3-yl-phenyl)-ethyl]-butyramide] | – | 172% | 0.0007 µM | –
C[C@H](NC(=O)C=Cc1ccccc1)c1cccc(-n2cccn2)c1 [Example 31, (S)-3-Phenyl-N-[1-(3-pyrazol-1-yl-phenyl)-ethyl]-acrylamide] | – | 3364% | 1.24 µM | –
NCC1(CC(=O)O)CCCCC1 [Gabapentin, gabapentin, reference compound] | – | – | – | 50 (100 mg/kg, i.v.) Δ % MPE

Reference: US7135472B2, “3-Heterocyclic benzylamide derivatives as potassium channel openers” (Bristol-Myers Squibb Company, priority 2002, dated 2006)
